Test results taken from ChEMBL document CHEMBL1142750, “Gastric cytoprotective activity of ilicic aldehyde: structure-activity relationships” (2005).

Tests used:
Assay type in all cases: functional
Rattus norvegicus [1] = experiment: Percent inhibition ethanol induced necrotic damage of gastric mucosa in male wistar rat after dosage; Dose range 25-100 mg/kg
Rattus norvegicus [2] = experiment: Gastric cytoprotective effect as ulcerative index was calculated in male wistar rat after 100 mg/kg dosage
Rattus norvegicus [3] = experiment: Gastric cytoprotective effect as ulcerative index was calculated in male wistar rat after 20 mg/kg dosage
Rattus norvegicus [4] = experiment: Percent inhibition ethanol induced necrotic damage of gastric mucosa in male wistar rat after 1 hr of contact with synthetic gastric juice; Dose range 25?100 mg/kg
Rattus norvegicus [5] = experiment: Percent inhibition ethanol induced necrotic damage of gastric mucosa in male wistar rat after 2 hr of contact with synthetic gastric juice; Dose range 25?100 mg/kg
Rattus norvegicus [6] = experiment: Gastric cytoprotective effect as ulcerative index was calculated in male wistar rat at 100 mg/kg dose after 1 hr of contact with synthetic gastric juice
Rattus norvegicus [7] = experiment: Gastric cytoprotective effect as ulcerative index was calculated in male wistar rat at 100 mg/kg dose after 2 hr of contact with synthetic gastric juice

Row | SMILES | Inhibition of damage (Rattus norvegicus [1]) [%] | Ulcerative index (Rattus norvegicus [2]) | other results
1 | C=C(C=O)[C@@H]1CC[C@@]2(C)CCCC(C)=C2C1 | 5 | 4.62 | –
2 | C=C(C=O)[C@@H]1CC[C@@]2(C)CCC[C@@](C)(O)C2C1 (some centres not stated) | 96 | 0.2 | –
3 | C=C(CO)[C@@H]1CC[C@@]2(C)CCC[C@@](C)(O)C2C1 (some centres not stated) | 1 | 4.8 | –
4 | C=C(C(=O)O)[C@@H]1CCC2=CC=C[C@H](C)[C@@]2(C)C1 | 23 | – | Ulcerative index (Rattus norvegicus [3]): 3.7
5 | C=C1C(=O)O[C@H]2C1CCC(C)=C1C(=O)C=C(C)[C@@H]12 (some centres not stated) | 97 | 0.16 | –
6 | C=C(C=O)[C@@H]1CC[C@@]2(C)CCC[C@@](C)(OC(=O)C(F)(F)F)C2C1 (some centres not stated) | – | – | Inhibition of damage (Rattus norvegicus [4]): 86%; Inhibition of damage (Rattus norvegicus [5]): 96%; Ulcerative index (Rattus norvegicus [6]): 0.66; Ulcerative index (Rattus norvegicus [7]): 0.16
7 | C=C(C=O)[C@@H]1CC[C@@]2(C)CCC[C@@](C)(O[Si](C)(C)C)C2C1 (some centres not stated) | 48 | 2.5 | –
8 | C=C1C(=O)O[C@]23C[C@H]1CC[C@@]2(C)CCC[C@H]3C | 48 | 2.5 | –
9 | C=C1C(=O)O[C@]23C[C@H]1CC[C@@]2(C)CCCC3=C | 30 | 3.37 | –
10 | C=C1CCC[C@]2(C)CC[C@@H](C(=C)C=O)CC12 (some centres not stated) | 23 | 3.75 | –
11 | C=C(C(=O)O)[C@@H]1CC[C@@]2(C)CCC[C@@](C)(O)C2C1 (some centres not stated) | 5 | 4.62 | –
12 | C=C(C(=O)O)[C@@H]1CC[C@@]2(C)CCCC(C)=C2C1 | 17 | 4 | –
13 | COc1ccc2[nH]c([S+]([O-])Cc3ncc(C)c(OC)c3C)nc2c1 (configuration not stated) [OMEPRAZOLE] | 38 | – | Ulcerative index (Rattus norvegicus [3]): 3
14 | C=C(C(=O)OC)[C@@H]1CCC2=CC(=O)C[C@H](C)[C@@]2(C)C1 [TESSARIC ACID METHYL ESTER] | 5 | 4.62 | –
15 | C=C(C(=O)O)[C@@H]1CCC2=CC(=O)C[C@H](C)[C@@]2(C)C1 [TESSARIC ACID] | 5 | 4.62 | –
